Experimental data from publication PMC10349806 (Nature Communications, 2023).
“And” between values parts separate entries of the source, which are not always exact repeats. Equal values may be shown once.

Columns and labels:
PfCRT variant W280A = experiment: CQ uptake assay, oocytes expressing W280A; assay type: cell-based, Plasmodium falciparum
Method: (§1) Site-directed mutagenesis of PfCRT^Dd2 was performed as described using the megaprimer method with overlap extension[21],[54]. The primer pairs used are listed in Supplementary Table 6. Please note that a codon-optimized and oocyte-adapted version of PfCRT^Dd2 was used[22] (Supplementary Fig. 16). The resulting DNA fragment was cloned into the SP64T expression vector and verified by sequencing.
(§2) Oocytes were obtained as described previously. Briefly, adult (>2 years old) female X. laevis frogs (NASCO) were anesthetized in a cooled solution of ethyl 3-amino benzoate methanesulfonate (0.1%, w/v), followed by a surgical removal of parts of the ovary. The ovary lobes were carefully dissected and small pieces of oocytes were incubated in Ca^2+-free ND96 buffer (96 mM NaCl, 2 mM KCl, 1 mM MgCl2 buffered with 5 mM HEPES/NaOH, pH 7.5) supplemented with collagenase D (0.1%, w/v; Roche), BSA (0.5%, w/v), and 9 mm Na2HPO4 at 18 °C for 14-16 h while gentle shaking. After incubation, the oocytes were carefully washed several times with ND96 buffer (96 mM NaCl, 2 mM KCl, 1.8 mM CaCl2, 1 mM MgCl2 buffered with 5 mM HEPES/NaOH, pH 7.5) supplemented with 100 mg l^−1 gentamycin). Defolliculated and healthy-looking stage V-VI oocytes were manually selected for RNA microinjection. The RNA was generated as following: The codon-optimized sequences of PfCRT variants were cloned into the pSP64T expression vector. After vector linearization using the restriction endonucleases BamHI or SalI (New England Biolabs), transcription was performed using the in vitro SP6 mMessage mMachine Kit (Ambion)[34]. The obtained RNA was kept at −80 °C and diluted with nuclease-free water to a concentration of 0.6 μg μl^−1. Precision-bore glass capillary tubes (3.5-inch glass capillaries; Drummond Scientific Co.) were pulled on a vertical puller (P-87 Flaming/Brown micropipette puller, Sutter Instrument Co.), graduated, and placed on a microinjector (Nanoject II Auto-Nanoliter Injector, Drummond Scientific Co.). 50 nl of nuclease-free water alone (control oocytes) or 50 nl of 0.6 μg μl^−1 RNA were injected under stereomicroscopic control. Injected oocytes were incubated for 46–72 h at 18 °C with twice-daily buffer changes before usage in experiments.
(§3) Drug uptake assays were performed as described previously[21],[22],[24],[34]. […] The direction of radio-labeled drug transport is here from the mostly acidic extracellular solution (pH 4.5 or 6.0, as indicated) into the oocyte cytosol (pH ∼ 7.2), which corresponds to the efflux of drug from the acidic digestive vacuole (pH 5.2) into the parasite cytoplasm (pH 7.2). The topology of PfCRT in the oolemma is such that both the N- and C-terminus face the extracellular milieu[3],[22]. In the parasite, the N- and C-terminus face the lumen of the digestive vacuole. CQ uptake kinetics were performed by incubating oocytes in ND96 buffer adjusted to a pH of 4.5, 5.0, 5.5, or 6.0 and supplemented with 50 nM [^3H]CQ and one of 7 different CQ concentrations (10 µM, 50 µM, 100 µM, 200 µM, 300 µM, 400 µM, 500 µM CQ). The reaction was stopped at the 60 min time point, which is in the linear uptake range[22],[34] (Supplementary Fig. 17). For determination of the amount of drug uptake for each oocyte, the reaction medium was removed and the oocytes were washed three times with 2 ml of ice-cold ND96 buffer. Each oocyte was individually transferred to a scintillation vial containing 5% sodium dodecyl sulfate (200 μl) for lysis. The radioactivity of each sample was measured using a liquid scintillation analyzer Tri-Carb 4910 TR (PerkinElmer). Oocytes that were injected with water instead of RNA were analyzed in parallel, representing the uptake of a drug by diffusion and/or endogenous permeation pathways. The resulting value represents the “background“ level of drug accumulation in oocytes (in-depth discussion in[22]). […]

PfCRT variant D311A = target: T1, PfCRT variant D311A (Plasmodium falciparum, UniProt Q9N623, A220S/D311A/I356T/K76T/M74I/N326S/N75E/Q271E/R371I); experiment: CQ uptake assay, oocytes expressing D311A; assay type: cell-based
T1 sequence (Q9N623 1-424 M74I/N75E/K76T/A220S/Q271E/D311A/N326S/I356T/R371I): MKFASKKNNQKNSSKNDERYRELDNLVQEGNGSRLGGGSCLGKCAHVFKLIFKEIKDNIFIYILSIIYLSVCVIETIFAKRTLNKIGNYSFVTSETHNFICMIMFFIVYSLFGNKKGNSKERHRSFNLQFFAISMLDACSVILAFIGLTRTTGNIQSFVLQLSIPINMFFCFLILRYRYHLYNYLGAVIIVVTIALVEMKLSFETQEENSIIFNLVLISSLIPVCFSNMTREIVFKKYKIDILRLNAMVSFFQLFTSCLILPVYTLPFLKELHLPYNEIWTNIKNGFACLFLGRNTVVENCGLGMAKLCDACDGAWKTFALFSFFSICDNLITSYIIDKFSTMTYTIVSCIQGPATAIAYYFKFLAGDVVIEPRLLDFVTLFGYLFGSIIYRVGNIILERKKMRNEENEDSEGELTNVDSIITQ
Method: as §1, §2, §3

[1] = W280A, 50 µM CQ, 1 h, mean ± SEM
[2] = pH 4.5, single replicates, Fig 1d left
[3] = pH 6.0, single replicates, Fig 1d left
[4] = D311A, 50 µM CQ, 1 h, mean ± SEM

**Q.** `CCN(CC)CCCC(C)Nc1ccnc2cc(Cl)ccc12` (stereo not drawn) [CQ, chloroquine] was tested. Which “Activity at pH 4.5” value (PfCRT variant W280A; [1]) did it give?
**A.** 0.92 ± 0.11 pmol h-1 oocyte-1

**Q.** What about the “Activity at pH 6.0” value (PfCRT variant W280A; [1]) of the same compound?
**A.** 2.64 ± 0.28 pmol h-1 oocyte-1

**Q.** What about the R-value (PfCRT variant W280A; W280A, CQ transport at pH 4.5 / pH 6.0) of the same compound?
**A.** 0.35 ± 0.03

**Q.** What about the “W280A transport activity pH 4.5” value (PfCRT variant W280A; [2]) of the same compound?
**A.** 0.97 pmol oocyte-1 h-1 and 0.58 pmol oocyte-1 h-1 and 1.22 pmol oocyte-1 h-1 and 0.92 pmol oocyte-1 h-1

**Q.** And the “W280A R-value” (PfCRT variant W280A; pH 4.5 vs pH 6.0, Fig 1d left)?
**A.** 0.31 and 0.28 and 0.38 and 0.44

**Q.** And the “W280A transport activity pH 6.0” value (PfCRT variant W280A; [3])?
**A.** 3.17 pmol oocyte-1 h-1 and 2.06 pmol oocyte-1 h-1 and 3.24 pmol oocyte-1 h-1 and 2.09 pmol oocyte-1 h-1

**Q.** And the “Activity at pH 4.5” value (PfCRT variant D311A; [4])?
**A.** 1.07 ± 0.25 pmol h-1 oocyte-1

**Q.** And the “Activity at pH 6.0” value (PfCRT variant D311A; [4])?
**A.** 3.22 ± 0.61 pmol h-1 oocyte-1

**Q.** What about the R-value (PfCRT variant D311A; D311A, CQ transport at pH 4.5 / pH 6.0) of the same compound?
**A.** 0.33 ± 0.05

**Q.** What about the “D311A transport activity pH 4.5” value (PfCRT variant D311A; [2]) of the same compound?
**A.** 0.58 pmol oocyte-1 h-1 and 1.64 pmol oocyte-1 h-1 and 0.99 pmol oocyte-1 h-1

**Q.** What about the “D311A R-value” (PfCRT variant D311A; pH 4.5 vs pH 6.0, Fig 1d left) of the same compound?
**A.** 0.22 and 0.35 and 0.42

**Q.** What about the “D311A transport activity pH 6.0” value (PfCRT variant D311A; [3]) of the same compound?
**A.** 2.63 pmol oocyte-1 h-1 and 4.69 pmol oocyte-1 h-1 and 2.33 pmol oocyte-1 h-1
